Results published in patent US20260109707A1, “HETEROBIFUNCTIONAL COMPOUNDS AND METHODS OF TREATING DISEASE” (Halda Therapeutics OpCo. Inc., priority 2022, published 2026).
Like-named read-outs stand apart in the source and are kept apart here.

Experiments:
[1] = system: T-Rex 293 cell line SC3 cells having increased expression of androgen receptor protein due to exposure to doxycycline; test: Cellular growth inhibition assay, T-Rex 293 SC3 cells with doxycycline (CellTiter-Glo, 72 hours); type: cell-based; details: T-Rex 293 SC3 cells with increased androgen receptor expression due to doxycycline (10 ng/mL)
Method in brief: (§1)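 Doxycycline (10 ng/mL) was either included or omitted to toggle wild-type androgen receptor expression in SC3 cells, a T-Rex 293 clone, grown in stripped-serum, phenol red-free medium. After 72 hours with compound, viable cells were quantified by CellTiter-Glo 2.0.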

[2] = system: T-Rex 293 cell line SC3 cells lacking increased expression of androgen receptor protein; test: Cellular growth inhibition assay, T-Rex 293 SC3 cells without doxycycline (CellTiter-Glo, 72 hours); type: cell-based; details: T-Rex 293 cell line SC3 cells not exposed to doxycycline (lacking increased androgen receptor expression)
Method in brief: as §1

VCaP cells = test: Cellular growth inhibition assay for VCaP cells (CellTiter-Glo, 72 hours); type: cell-based, human
Method in brief: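 Luminescent viability signal after 72 h of compound exposure gave GI50 values by four-parameter nonlinear regression. Compounds were added in 0.5% DMSO to cells plated 24 h earlier at 5000/well in DMEM containing 10% FBS.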

T47D cells = test: Cellular growth inhibition assay for T47D cells (CellTiter-Glo, 72 hours); type: cell-based, human; details: 72 hours treatment
Method in brief: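 Cells are plated at 3000/well and allowed 24 h before treatment. Test compound in medium containing 0.5% DMSO is then added, with DMSO-only wells as negative control, and plates are incubated 72 h at 37 °C. ATP luminescence (CellTiter-Glo 2.0) is then fitted to four parameters to derive GI50.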

Compound | GI50 (VCaP cells; Homo sapiens, VCaP, 72 h) [nM] | GI50 (T47D cells; Homo sapiens, T47D, 72 h) [nM] | GI50 (VCaP cells) [nM] | GI50 (T47D cells) [nM] | GI50 ([1]; 72 h) [nM] | GI50 ([2]; 72 h) [nM] | GI50 [1] [nM] | GI50 [2] [nM]
Cc1sc2c(c1C)C(c1ccc(N3CCC[C@H](C(=O)N4CCC[C@@H](c5ccc(C(=O)N[C@H]6CC[C@H](Oc7ccc(C#N)c(Cl)c7)CC6)nn5)C4)C3)cc1)=N[C@@H](Cc1ncco1)c1nnc(C)n1-2 [I-302] | 500 to 1500 | < 500 |  |  | < 500 | < 500 |  | 
Cc1sc2c(c1C)C(c1ccc(N3CCC[C@H](C(=O)N4CCC[C@H](c5ccc(C(=O)N[C@H]6CC[C@H](Oc7ccc(C#N)c(Cl)c7)CC6)nn5)C4)C3)cc1)=N[C@H](Cc1ncco1)c1nnc(C)n1-2 [I-303] | > 3000 | > 3000 |  |  | > 3000 | > 3000 |  | 
Cc1sc2c(c1C)C(c1ccc(N3CCC[C@H](C(=O)N4CCC[C@@H](c5ccc(C(=O)N[C@H]6CC[C@H](Oc7ccc(C#N)c(Cl)c7)CC6)nn5)C4)C3)cc1)=N[C@H](Cc1ncco1)c1nnc(C)n1-2 [I-304] | > 3000 | > 3000 |  |  | > 3000 | > 3000 |  | 
Cc1sc2c(c1C)C(c1ccc(C(=O)N3CCC(N(C)c4ccc(C(=O)N[C@H]5CC[C@H](Oc6ccc(C#N)c(Cl)c6)CC5)nn4)CC3)cc1)=N[C@@H](Cc1ncco1)c1nnc(C)n1-2 [I-306] | > 3000 | 1500 to 3000 |  |  | > 3000 | > 3000 |  | 
Cc1sc2c(c1C)C(c1ccc(C(=O)N3CCC(N(C)c4ccc(C(=O)N[C@H]5CC[C@H](Oc6ccc(C#N)c(Cl)c6)CC5)nn4)CC3)cc1)=N[C@H](Cc1ncco1)c1nnc(C)n1-2 [I-307] | 1500 to 3000 | 1500 to 3000 |  |  | < 500 | 500 to 1500 |  | 
Cc1sc2c(c1C)C(c1ccc(N(C)CC(=O)N3CCC(c4ccc(C(=O)N[C@H]5CC[C@H](Oc6ccc(C#N)c(Cl)c6)CC5)nn4)CC3)cc1)=N[C@@H](Cc1ncco1)c1nnc(C)n1-2 [I-312] | > 3000 | > 3000 |  |  | > 3000 | > 3000 |  | 
Cc1sc2c(c1C)C(c1ccc(C(=O)N3CCN(CCc4ccc(C(=O)N[C@H]5CC[C@H](Oc6ccc(C#N)c(Cl)c6)CC5)nn4)CC3)cc1)=N[C@H](Cc1ncco1)c1nnc(C)n1-2 [I-314] | 500 to 1500 | 1500 to 3000 |  |  | 500 to 1500 | > 3000 |  | 
Cc1sc2c(c1C)C(c1ccc(CN(C)C(=O)NCc3ccc(C(=O)N[C@H]4CC[C@H](Oc5ccc(C#N)c(Cl)c5)CC4)nn3)cc1)=N[C@@H](Cc1ncco1)c1nnc(C)n1-2 [I-318] | < 500 | > 3000 |  |  | < 500 | > 3000 |  | 
Cc1sc2c(c1C)C(c1ccc(CC(=O)N3CCN(c4ccc(C(=O)N[C@H]5CC[C@H](Oc6ccc(C#N)c(Cl)c6)CC5)nn4)CC3)cc1)=N[C@@H](Cc1ncco1)c1nnc(C)n1-2 [I-319] | < 500 | < 500 |  |  | < 500 | > 3000 |  | 
Cc1sc2c(c1C)C(c1ccc(C(=O)N(C)CCCc3ccc(C(=O)N[C@H]4CC[C@H](Oc5ccc(C#N)c(Cl)c5)CC4)nn3)cc1)=N[C@@H](Cc1ncco1)c1nnc(C)n1-2 [I-320] | > 3000 | > 3000 |  |  | > 3000 | > 3000 |  | 
Cc1sc2c(c1C)C(c1ccc(C(=O)N(C)CCCc3ccc(C(=O)N[C@H]4CC[C@H](Oc5ccc(C#N)c(Cl)c5)CC4)nn3)cc1)=N[C@H](Cc1ncco1)c1nnc(C)n1-2 [I-321] | < 500 | 1500 to 3000 |  |  | < 500 | > 3000 |  | 
Cc1sc2c(c1C)C(c1ccc(C#CC3CC4(C3)CN(c3ccc(C(=O)N[C@H]5CC[C@H](Oc6ccc(C#N)c(Cl)c6)CC5)nn3)C4)nc1)=N[C@H](Cc1ncco1)c1nnc(C)n1-2 [I-322] | < 500 | < 500 |  |  | < 500 | < 500 |  | 
Cc1sc2c(c1C)C(c1ccc(CCC[C@H]3CCCN(c4ccc(C(=O)N[C@H]5CC[C@H](Oc6ccc(C#N)c(Cl)c6)CC5)nn4)C3)cc1)=N[C@@H](C)c1nnc(C)n1-2 [I-323] | < 500 | 500 to 1500 |  |  | < 500 | 500 to 1500 |  | 
Cc1sc2c(c1C)C(c1ccc(CCO[C@@H]3CCCN(c4ccc(C(=O)N[C@H]5CC[C@H](Oc6ccc(C#N)c(Cl)c6)CC5)nn4)C3)cc1)=N[C@@H](C)c1nnc(C)n1-2 [I-324] | > 3000 | 1500 to 3000 |  |  | < 500 | > 3000 |  | 
Cc1sc2c(c1C)C(c1ccc(CCO[C@H]3CCCN(c4ccc(C(=O)N[C@H]5CC[C@H](Oc6ccc(C#N)c(Cl)c6)CC5)nn4)C3)cc1)=N[C@@H](C)c1nnc(C)n1-2 [I-325] | 1500 to 3000 | 1500 to 3000 |  |  | < 500 | > 3000 |  | 
Cc1sc2c(c1C)C(c1ccc(CC[C@H]3C[C@@]4(CCCN(c5ccc(C(=O)N[C@H]6CC[C@H](Oc7ccc(C#N)c(Cl)c7)CC6)nn5)C4)C3)cc1)=N[C@@H](C)c1nnc(C)n1-2 [I-326] |  |  | < 500 | < 500 |  |  | < 500 | > 3000
Cc1sc2c(c1C)C(c1ccc(CC[C@H]3C[C@]4(CCCN(c5ccc(C(=O)N[C@H]6CC[C@H](Oc7ccc(C#N)c(Cl)c7)CC6)nn5)C4)C3)cc1)=N[C@@H](C)c1nnc(C)n1-2 [I-327] |  |  | > 3000 | 1500 to 3000 |  |  | < 500 | > 3000
Cc1sc2c(c1C)C(c1ccc(OC[C@H]3CC[C@@]4(CCCN(c5ccc(C(=O)N[C@H]6CC[C@H](Oc7ccc(C#N)c(Cl)c7)CC6)nn5)C4)C3)nc1)=N[C@@H](Cc1ncco1)c1nnc(C)n1-2 [I-328] | < 500 | 500 to 1500 |  |  | < 500 | < 500 |  | 
Cc1sc2c(c1C)C(c1ccc(OC[C@H]3CC[C@]4(CCCN(c5ccc(C(=O)N[C@H]6CC[C@H](Oc7ccc(C#N)c(Cl)c7)CC6)nn5)C4)C3)nc1)=N[C@@H](Cc1ncco1)c1nnc(C)n1-2 [I-329] | < 500 | > 3000 |  |  | < 500 | > 3000 |  | 
Cc1sc2c(c1C)C(c1ccc(OC[C@@H]3CC[C@@]4(CCCN(c5ccc(C(=O)N[C@H]6CC[C@H](Oc7ccc(C#N)c(Cl)c7)CC6)nn5)C4)C3)nc1)=N[C@@H](Cc1ncco1)c1nnc(C)n1-2 [I-330] | < 500 | > 3000 |  |  | < 500 | > 3000 |  | 
Cc1sc2c(c1C)C(c1ccc(CC(=O)N3CCC(c4ccc(C(=O)N[C@H]5CC[C@H](Oc6ccc(C#N)c(Cl)c6)CC5)nn4)CC3)cc1)=N[C@H](Cc1ncco1)c1nnc(C)n1-2 [I-331] | < 500 | 1500 to 3000 |  |  | > 3000 | > 3000 |  | 

Now from value to compound, other results behind:

GI50 (VCaP cells; Homo sapiens, VCaP, 72 h) [nM] | GI50 (T47D cells; Homo sapiens, T47D, 72 h) [nM] | GI50 (VCaP cells) [nM] | GI50 (T47D cells) [nM] | Compound | GI50 ([1]; 72 h) [nM] | GI50 ([2]; 72 h) [nM] | GI50 [1] [nM] | GI50 [2] [nM]
< 500 | < 500 |  |  | Cc1sc2c(c1C)C(c1ccc(N3CCC[C@H](C(=O)N4CCC[C@H](c5ccc(C(=O)N[C@H]6CC[C@H](Oc7ccc(C#N)c(Cl)c7)CC6)nn5)C4)C3)cc1)=N[C@@H](Cc1ncco1)c1nnc(C)n1-2 [I-301] | < 500 | < 500 |  | 
< 500 | < 500 |  |  | Cc1sc2c(c1C)C(c1ccc(CCCN(C)C(=O)c3ccc(C(=O)N[C@H]4CC[C@H](Oc5ccc(C#N)c(Cl)c5)CC4)nn3)cc1)=N[C@@H](Cc1ncco1)c1nnc(C)n1-2 [I-305] | < 500 | < 500 |  | 
< 500 | 500 to 1500 |  |  | Cc1sc2c(c1C)C(c1ccc(CCC[C@@H]3CCCN(c4ccc(C(=O)N[C@H]5CC[C@H](Oc6ccc(C#N)c(Cl)c6)CC5)nn4)C3)cc1)=N[C@@H](C)c1nnc(C)n1-2 [I-308] | < 500 | > 3000 |  | 
< 500 | 500 to 1500 |  |  | Cc1sc2c(c1C)C(c1ccc(OC[C@H]3C[C@@]4(CCCN(c5ccc(C(=O)N[C@H]6CC[C@H](Oc7ccc(C#N)c(Cl)c7)CC6)nn5)C4)C3)cc1)=N[C@@H](C)c1nnc(C)n1-2 [I-310] | < 500 | > 3000 |  | 
< 500 | < 500 |  |  | Cc1sc2c(c1C)C(c1ccc(C#CC3CC4(C3)CN(c3ccc(C(=O)N[C@H]5CC[C@H](Oc6ccc(C#N)c(Cl)c6)CC5)nn3)C4)cc1)=N[C@@H](C)c1nnc(C)n1-2 [I-311] | < 500 | < 500 |  | 
< 500 | 500 to 1500 |  |  | Cc1sc2c(c1C)C(c1ccc(N(C)CC(=O)N3CCC(c4ccc(C(=O)N[C@H]5CC[C@H](Oc6ccc(C#N)c(Cl)c6)CC5)nn4)CC3)cc1)=N[C@H](Cc1ncco1)c1nnc(C)n1-2 [I-313] | < 500 | > 3000 |  | 
< 500 | 500 to 1500 |  |  | Cc1sc2c(c1C)C(c1ccc(CN(C)C(=O)[C@@H]3CC[C@H](c4ccc(C(=O)N[C@H]5CC[C@H](Oc6ccc(C#N)c(Cl)c6)CC5)nn4)C3)cc1)=N[C@@H](Cc1ncco1)c1nnc(C)n1-2 [I-315] | < 500 | > 3000 |  | 
< 500 | 1500 to 3000 |  |  | Cc1sc2c(c1C)C(c1ccc(CN(C)C(=O)[C@@H]3CC[C@@H](c4ccc(C(=O)N[C@H]5CC[C@H](Oc6ccc(C#N)c(Cl)c6)CC5)nn4)C3)cc1)=N[C@@H](Cc1ncco1)c1nnc(C)n1-2 [I-316] | < 500 | > 3000 |  | 
< 500 | < 500 |  |  | Cc1sc2c(c1C)C(c1ccc(CC(=O)NCCc3ccc(C(=O)N[C@H]4CC[C@H](Oc5ccc(C#N)c(Cl)c5)CC4)nn3)cc1)=N[C@@H](Cc1ncco1)c1nnc(C)n1-2 [I-317] | < 500 | 500 to 1500 |  | 
